Data published in patent publication US4428936A, “Antibacterial composition for medical use” (Toyama Chemical Co., Ltd., priority 1978, dated 1984).

Columns and labels:
[1] = test system: Klebsiella pneumoniae GN 69; assay: Growth-inhibition test with potassium clavulanate; type: cell-based; parameters: key: (+) means that the test bacterium grew; (-) means that the test bacterium did not grow; conditions: potassium clavulanate 100,25,6.25,1.6,0.4,0 μg/ml
Protocol: (§1) Heart Infusion agar containing a prescribed amount of Methicillin sodium or T-1551 Na was inoculated with the test bacterium at a rate of about 10^8 cells/ml. After incubation for 18 hours at 37° C., the growth of the test bacterium was inspected.
(§2) The same operation as in Test Example 1 was repeated, except that the Methicillin sodium was replaced by potassium clavulanate and the test bacteria were replaced by those shown in Tables 6, 7 and 8, to obtain the results shown in Tables 6, 7 and 8.

Escherichia coli GN 6299 = assay: Growth-inhibition test with potassium clavulanate; type: cell-based; parameters: key: (+) means that the test bacterium grew; (-) means that the test bacterium did not grow; conditions: potassium clavulanate by line b171,b173-b182: 100,(unlabelled),25,(unlabelled),6.25,(unlabelled),1.6,(unlabelled),0.4,(unlabelled),0 μg/ml
Protocol: as §1, §2

[2] = test system: Pseudomonas aeruginosa GN 3345; assay: Growth-inhibition test with potassium clavulanate; type: cell-based; parameters: key: (+) means that the test bacterium grew; (-) means that the test bacterium did not grow; conditions: potassium clavulanate by line b219-b229: 100,(unlabelled),25,(unlabelled),12.5,(unlabelled),3.1,(unlabelled),0.4,(unlabelled),0 μg/ml
Protocol: as §1, §2

Escherichia coli TK-3 [3] = assay: Minimum inhibitory concentration; type: cell-based; conditions: TK3; Escherichia coli TK-3 strain
Protocol: (§3) The minimum inhibitory concentration of T-1551 Na or Methicillin sodium against Escherichia coli TK-3 strain or Kleosiella pneumoniae Y-4 strain was greater than 800 μg/ml in each case.

[4] = test system: Klebsiella pneumoniae Y-4; assay: Minimum inhibitory concentration; type: cell-based; conditions: Y4; Klebsiella pneumoniae Y-4 strain
Protocol: as §3

K. pneumoniae Y-53 = assay: Effect of combined use on experimental infection in mice (protection); type: in vivo, mice (ICR strain) infected with K. pneumoniae; conditions: challenge dose 1.0 × 10^7 cells/mouse, peritoneal; subcutaneous administration one and two hours after inoculation
Text: (§4) Male mice (5 mice per group) of the ICR strain, 4 weeks of age, were peritoneally inoculated with the prescribed number of pathogenic bacteria suspended in 5% mucin. After one hour and two hours following the inoculation, test preparations shown in Table 5 were subcuataneously administered to examine the protection effect.

K. pneumoniae Y-4 = assay: as above; type: in vivo, mice (ICR strain) infected with K. pneumoniae; conditions: challenge dose 5.7 × 10^7 cells/mouse, peritoneal; subcutaneous administration one and two hours after inoculation
Text: as §4

Escherichia coli TK-3 [5] = assay: Growth-inhibition test on clinically isolated strain (agar, about 10^8 cells/ml); type: cell-based; parameters: key: (+) means that the test bacterium grew; (-) means that the test bacterium did not grow; conditions: Methicillin sodium: 3200,1600,800,400,200,100,50,25,12.5,0 μg/ml, 18 hours, 37° C
Protocol: as §1

[6] = test system: Klebsiella pneumoniae Y-4; assay: as above; type: cell-based; parameters: key: (+) means that the test bacterium grew; (-) means that the test bacterium did not grow; conditions: Methicillin sodium: 3200,1600,800,400,200,100,50,25,12.5,0 μg/ml, 18 hours, 37° C
Protocol: as §1

[7] = test system: Pseudomonas aeruginosa S-111; assay: as above; type: cell-based; parameters: key: (+) means that the test bacterium grew; (-) means that the test bacterium did not grow; conditions: Methicillin sodium 3200,1600,800,400,200,100,50,25,12.5,0 μg/ml, 18 hours, 37° C
Protocol: as §1

[8] = T-1551 Na unlabelled column between 12.5 and 3.1 μg/ml
[9] = T-1551 Na unlabelled column between 50 and 12.5 μg/ml
[10] = T-1551 Na unlabelled column between 200 and 50 μg/ml
[11] = T-1551 Na unlabelled column between 800 and 200 μg/ml

- MIC (Escherichia coli TK-3 [3]): > 800 µg/mL
- MIC [4]: > 800 µg/mL
SMILES: CCN1CCN(C(=O)N[C@@H](C(=O)N[C@@H]2C(=O)N3C(C(=O)O)=C(CSc4nnnn4C)CS[C@H]23)c2ccc(O)cc2)C(=O)C1=O [T-1551 Na, sodium 7-[D(-)-α-(4-ethyl-2,3-dioxo-1-piperazinylcarbonylamino)-p-hydroxyphenylacetamide]-3-[5-(1-methyl-1,2,3,4-tetrazolyl)thiomethyl]-Δ^3-cephem-4-carboxylate]
- growth of the test bacterium ([1]; T-1551 Na 0.2 μg/ml): +
- growth of the test bacterium ([1]; T-1551 Na 0.8 μg/ml): +
- growth of the test bacterium ([1]; T-1551 Na 3.1 μg/ml): +
- growth of the test bacterium ([1]; T-1551 Na 12.5 μg/ml): +
- growth of the test bacterium ([1]; T-1551 Na 50 μg/ml): +
- growth of the test bacterium ([1]; T-1551 Na 200 μg/ml): +
- growth of the test bacterium ([1]; T-1551 Na 800 μg/ml): -
- growth of the test bacterium (Escherichia coli GN 6299; T-1551 Na 0.2 μg/ml): +
- growth of the test bacterium (Escherichia coli GN 6299; T-1551 Na 0.8 μg/ml): +
- growth of the test bacterium (Escherichia coli GN 6299; T-1551 Na 3.1 μg/ml): +
- growth of the test bacterium (Escherichia coli GN 6299; T-1551 Na 12.5 μg/ml): +
- growth of the test bacterium (Escherichia coli GN 6299; T-1551 Na 50 μg/ml): +
- growth of the test bacterium (Escherichia coli GN 6299; T-1551 Na 200 μg/ml): +
- growth of the test bacterium (Escherichia coli GN 6299; T-1551 Na 800 μg/ml): +
- growth of the test bacterium (Escherichia coli GN 6299; T-1551 Na unlabelled column between 0.8 and 0.2 μg/ml): +
- growth of the test bacterium (Escherichia coli GN 6299; T-1551 Na unlabelled column between 3.1 and 0.8 μg/ml): +
- growth of the test bacterium (Escherichia coli GN 6299; [8]): +
- growth of the test bacterium (Escherichia coli GN 6299; [9]): +
- growth of the test bacterium (Escherichia coli GN 6299; [10]): +
- growth of the test bacterium (Escherichia coli GN 6299; [11]): +
- growth of the test bacterium ([2]; T-1551 Na 3.1 μg/ml): +
- growth of the test bacterium ([2]; T-1551 Na 12.5 μg/ml): +
- growth of the test bacterium ([2]; T-1551 Na 50 μg/ml): +
- growth of the test bacterium ([2]; T-1551 Na 200 μg/ml): +
- growth of the test bacterium ([2]; T-1551 Na 800 μg/ml): -
- growth of the test bacterium [2, 8]: +
- growth of the test bacterium [2, 9]: +
- growth of the test bacterium [2, 10]: +
- growth of the test bacterium [2, 11]: -
- ED50 (protection effect) (K. pneumoniae Y-53): > 10.0 mg/mouse
- ED50 (protection effect) (K. pneumoniae Y-4): > 26.8 mg/mouse
- growth of the test bacterium (Escherichia coli TK-3 [5]; T-1551 Na 0.78 μg/ml): +
- growth of the test bacterium (Escherichia coli TK-3 [5]; T-1551 Na 1.56 μg/ml): +
- growth of the test bacterium (Escherichia coli TK-3 [5]; T-1551 Na 3.13 μg/ml): +
- growth of the test bacterium (Escherichia coli TK-3 [5]; T-1551 Na 6.25 μg/ml): +
- growth of the test bacterium (Escherichia coli TK-3 [5]; T-1551 Na 12.5 μg/ml): +
- growth of the test bacterium (Escherichia coli TK-3 [5]; T-1551 Na 25 μg/ml): +
- growth of the test bacterium (Escherichia coli TK-3 [5]; T-1551 Na 50 μg/ml): +
- growth of the test bacterium (Escherichia coli TK-3 [5]; T-1551 Na 100 μg/ml): +
- growth of the test bacterium (Escherichia coli TK-3 [5]; T-1551 Na 200 μg/ml): +
- growth of the test bacterium ([6]; T-1551 Na 0.78 μg/ml): +
- growth of the test bacterium ([6]; T-1551 Na 1.56 μg/ml): +
- growth of the test bacterium ([6]; T-1551 Na 3.13 μg/ml): +
- growth of the test bacterium ([6]; T-1551 Na 6.25 μg/ml): +
- growth of the test bacterium ([6]; T-1551 Na 12.5 μg/ml): +
- growth of the test bacterium ([6]; T-1551 Na 25 μg/ml): +
- growth of the test bacterium ([6]; T-1551 Na 50 μg/ml): +
- growth of the test bacterium ([6]; T-1551 Na 100 μg/ml): +
- growth of the test bacterium ([6]; T-1551 Na 200 μg/ml): +
- growth of the test bacterium ([7]; T-1551 Na 0.78 μg/ml): +
- growth of the test bacterium ([7]; T-1551 Na 1.56 μg/ml): +
- growth of the test bacterium ([7]; T-1551 Na 3.13 μg/ml): +
- growth of the test bacterium ([7]; T-1551 Na 6.25 μg/ml): +
- growth of the test bacterium ([7]; T-1551 Na 12.5 μg/ml): +
- growth of the test bacterium ([7]; T-1551 Na 25 μg/ml): +
- growth of the test bacterium ([7]; T-1551 Na 50 μg/ml): +
- growth of the test bacterium ([7]; T-1551 Na 100 μg/ml): +
- growth of the test bacterium ([7]; T-1551 Na 200 μg/ml): +
